Assay results reported in paper PMC6193938, “Characterization of a novel AICARFT inhibitor which potently elevates ZMP and has anti-tumor activity in murine models” (Scientific Reports, 2018).

Experiments:
[1] = target: T1, AXL (Homo sapiens, UniProt P30530); test: CEREP protein kinase assay; assay type: biochemical
T1 construct: purchased CEREP Panlabs (Eurofins)
T1 sequence (P30530 26-894): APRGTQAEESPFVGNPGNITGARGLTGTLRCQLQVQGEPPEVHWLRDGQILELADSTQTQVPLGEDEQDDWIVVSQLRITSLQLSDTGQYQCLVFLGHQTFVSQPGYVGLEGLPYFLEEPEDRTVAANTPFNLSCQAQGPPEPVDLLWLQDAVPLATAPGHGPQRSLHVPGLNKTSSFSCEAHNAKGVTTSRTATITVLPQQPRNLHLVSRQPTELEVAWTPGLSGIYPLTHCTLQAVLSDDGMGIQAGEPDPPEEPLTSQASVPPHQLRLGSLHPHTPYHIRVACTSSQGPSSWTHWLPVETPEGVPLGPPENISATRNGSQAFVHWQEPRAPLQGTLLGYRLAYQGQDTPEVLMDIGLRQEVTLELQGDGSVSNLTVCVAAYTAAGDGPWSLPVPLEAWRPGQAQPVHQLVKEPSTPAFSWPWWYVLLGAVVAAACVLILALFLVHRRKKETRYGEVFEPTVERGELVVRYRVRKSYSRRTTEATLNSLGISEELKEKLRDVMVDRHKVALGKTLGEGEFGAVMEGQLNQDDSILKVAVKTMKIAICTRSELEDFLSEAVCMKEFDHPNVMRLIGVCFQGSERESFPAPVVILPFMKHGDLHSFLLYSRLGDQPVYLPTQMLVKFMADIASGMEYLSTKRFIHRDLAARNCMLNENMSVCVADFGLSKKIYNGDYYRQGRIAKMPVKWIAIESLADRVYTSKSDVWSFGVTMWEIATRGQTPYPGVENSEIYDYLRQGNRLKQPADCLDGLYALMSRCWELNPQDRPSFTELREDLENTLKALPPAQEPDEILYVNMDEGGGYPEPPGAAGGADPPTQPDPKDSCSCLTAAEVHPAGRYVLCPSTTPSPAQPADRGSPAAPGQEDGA

[2] = test system: A9 tumor; test: Antitumor efficacy and tumor metabolites, A9 tumor model; assay type: in vivo, mouse; details: A9 tumors
[3] = target: T2, AURA (Homo sapiens, UniProt O14965); test: CEREP protein kinase assay; assay type: biochemical
T2 construct: purchased CEREP Panlabs (Eurofins)
T2 sequence (O14965 1-403): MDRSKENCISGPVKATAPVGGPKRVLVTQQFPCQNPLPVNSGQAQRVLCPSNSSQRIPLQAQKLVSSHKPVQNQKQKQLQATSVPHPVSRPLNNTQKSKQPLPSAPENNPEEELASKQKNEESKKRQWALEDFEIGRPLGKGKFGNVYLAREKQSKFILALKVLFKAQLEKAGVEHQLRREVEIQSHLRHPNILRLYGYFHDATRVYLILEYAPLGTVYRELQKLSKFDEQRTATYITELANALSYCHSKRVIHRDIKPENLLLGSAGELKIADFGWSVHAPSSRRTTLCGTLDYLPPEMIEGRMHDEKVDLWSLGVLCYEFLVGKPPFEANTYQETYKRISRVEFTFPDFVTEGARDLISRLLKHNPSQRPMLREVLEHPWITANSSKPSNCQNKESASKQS

[4] = target: T3, PKCb2 (Homo sapiens, UniProt P05771); test: CEREP protein kinase assay; assay type: biochemical
T3 construct: purchased CEREP Panlabs (Eurofins)
T3 sequence (P05771 1-673 isoform P05771-2): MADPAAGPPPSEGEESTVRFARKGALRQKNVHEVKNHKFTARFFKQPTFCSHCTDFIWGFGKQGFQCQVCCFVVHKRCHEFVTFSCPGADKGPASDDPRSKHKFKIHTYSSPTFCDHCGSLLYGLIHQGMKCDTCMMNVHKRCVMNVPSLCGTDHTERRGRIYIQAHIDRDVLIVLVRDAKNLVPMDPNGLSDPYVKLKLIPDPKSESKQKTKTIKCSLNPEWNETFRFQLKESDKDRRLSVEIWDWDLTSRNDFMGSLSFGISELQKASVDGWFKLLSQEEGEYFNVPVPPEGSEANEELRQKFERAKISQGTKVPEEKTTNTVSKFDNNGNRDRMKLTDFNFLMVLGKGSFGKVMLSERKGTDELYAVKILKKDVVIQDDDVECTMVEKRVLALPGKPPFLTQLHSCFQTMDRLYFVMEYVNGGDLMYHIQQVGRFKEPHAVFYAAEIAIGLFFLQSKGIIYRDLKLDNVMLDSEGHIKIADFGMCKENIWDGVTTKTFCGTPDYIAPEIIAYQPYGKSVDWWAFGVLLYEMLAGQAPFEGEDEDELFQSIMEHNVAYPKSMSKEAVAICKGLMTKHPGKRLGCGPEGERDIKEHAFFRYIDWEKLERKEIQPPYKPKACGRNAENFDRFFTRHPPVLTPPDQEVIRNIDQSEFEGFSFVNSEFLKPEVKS

[5] = target: T4, P38a (Homo sapiens, UniProt Q16539); test: CEREP protein kinase assay; assay type: biochemical
T4 construct: purchased CEREP Panlabs (Eurofins)
T4 sequence (Q16539 whole entry): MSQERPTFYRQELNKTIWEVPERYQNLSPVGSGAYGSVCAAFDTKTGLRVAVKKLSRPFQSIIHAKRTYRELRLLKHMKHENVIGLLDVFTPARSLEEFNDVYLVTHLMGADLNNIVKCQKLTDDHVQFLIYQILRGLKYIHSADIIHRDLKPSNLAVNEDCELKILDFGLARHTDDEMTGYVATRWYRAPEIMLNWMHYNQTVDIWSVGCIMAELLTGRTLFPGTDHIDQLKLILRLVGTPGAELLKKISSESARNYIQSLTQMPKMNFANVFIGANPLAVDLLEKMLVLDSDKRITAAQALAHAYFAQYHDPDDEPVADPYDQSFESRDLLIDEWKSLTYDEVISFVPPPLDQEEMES

[6] = target: T5, FGFR1 (Homo sapiens, UniProt P11362); test: CEREP protein kinase assay; assay type: biochemical
T5 construct: purchased CEREP Panlabs (Eurofins)
T5 sequence (P11362 22-822): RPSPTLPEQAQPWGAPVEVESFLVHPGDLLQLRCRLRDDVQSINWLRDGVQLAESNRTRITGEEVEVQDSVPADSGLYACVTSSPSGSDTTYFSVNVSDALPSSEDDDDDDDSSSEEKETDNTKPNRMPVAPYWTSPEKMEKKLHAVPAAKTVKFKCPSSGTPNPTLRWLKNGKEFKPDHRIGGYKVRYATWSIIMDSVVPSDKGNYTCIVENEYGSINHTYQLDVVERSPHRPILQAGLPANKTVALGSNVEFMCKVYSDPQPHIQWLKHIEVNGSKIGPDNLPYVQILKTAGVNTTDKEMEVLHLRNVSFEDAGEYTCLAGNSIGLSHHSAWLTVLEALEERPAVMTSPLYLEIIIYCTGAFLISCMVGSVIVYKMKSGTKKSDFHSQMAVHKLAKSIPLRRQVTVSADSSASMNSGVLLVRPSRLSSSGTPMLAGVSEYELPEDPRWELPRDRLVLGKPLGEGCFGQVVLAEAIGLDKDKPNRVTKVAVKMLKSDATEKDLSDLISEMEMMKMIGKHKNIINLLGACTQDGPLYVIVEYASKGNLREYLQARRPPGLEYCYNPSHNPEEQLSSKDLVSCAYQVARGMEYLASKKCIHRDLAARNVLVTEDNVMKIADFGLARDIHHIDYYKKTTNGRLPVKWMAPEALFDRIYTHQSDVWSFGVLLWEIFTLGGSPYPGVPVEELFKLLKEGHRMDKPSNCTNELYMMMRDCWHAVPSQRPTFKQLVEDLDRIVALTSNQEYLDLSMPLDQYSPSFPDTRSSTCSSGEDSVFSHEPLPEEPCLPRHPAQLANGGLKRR

[7] = target: T6, EPHB1 (Homo sapiens, UniProt P54762); test: CEREP protein kinase assay; assay type: biochemical
T6 construct: purchased CEREP Panlabs (Eurofins)
T6 sequence (P54762 18-984): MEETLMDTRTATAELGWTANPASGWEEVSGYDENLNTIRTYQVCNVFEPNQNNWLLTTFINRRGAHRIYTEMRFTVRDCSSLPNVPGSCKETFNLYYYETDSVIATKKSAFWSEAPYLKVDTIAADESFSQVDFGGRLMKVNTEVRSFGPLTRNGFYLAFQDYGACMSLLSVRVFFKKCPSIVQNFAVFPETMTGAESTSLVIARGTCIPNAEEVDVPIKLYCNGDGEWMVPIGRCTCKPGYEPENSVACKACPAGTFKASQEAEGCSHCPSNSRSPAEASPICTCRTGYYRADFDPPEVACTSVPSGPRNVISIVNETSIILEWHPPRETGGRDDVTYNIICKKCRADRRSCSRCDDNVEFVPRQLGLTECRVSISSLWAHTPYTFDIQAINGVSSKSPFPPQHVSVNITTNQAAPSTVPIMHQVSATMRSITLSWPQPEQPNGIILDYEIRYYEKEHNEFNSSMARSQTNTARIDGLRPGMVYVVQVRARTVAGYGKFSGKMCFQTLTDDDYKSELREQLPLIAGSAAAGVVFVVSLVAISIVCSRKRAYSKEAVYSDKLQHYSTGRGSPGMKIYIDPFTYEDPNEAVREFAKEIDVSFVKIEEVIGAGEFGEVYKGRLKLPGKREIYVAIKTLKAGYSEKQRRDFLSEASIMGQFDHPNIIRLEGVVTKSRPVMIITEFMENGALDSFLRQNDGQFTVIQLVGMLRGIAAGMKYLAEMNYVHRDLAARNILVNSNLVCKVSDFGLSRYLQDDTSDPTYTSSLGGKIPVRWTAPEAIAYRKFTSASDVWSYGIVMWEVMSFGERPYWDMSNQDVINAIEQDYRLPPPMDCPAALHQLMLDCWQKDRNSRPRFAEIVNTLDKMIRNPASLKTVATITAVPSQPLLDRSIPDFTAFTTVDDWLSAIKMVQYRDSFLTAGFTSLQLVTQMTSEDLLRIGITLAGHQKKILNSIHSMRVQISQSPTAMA

[8] = target: T7, HIPK2 (Homo sapiens, UniProt Q9H2X6); test: CEREP protein kinase assay; assay type: biochemical
T7 construct: purchased CEREP Panlabs (Eurofins)
T7 sequence (Q9H2X6 whole entry): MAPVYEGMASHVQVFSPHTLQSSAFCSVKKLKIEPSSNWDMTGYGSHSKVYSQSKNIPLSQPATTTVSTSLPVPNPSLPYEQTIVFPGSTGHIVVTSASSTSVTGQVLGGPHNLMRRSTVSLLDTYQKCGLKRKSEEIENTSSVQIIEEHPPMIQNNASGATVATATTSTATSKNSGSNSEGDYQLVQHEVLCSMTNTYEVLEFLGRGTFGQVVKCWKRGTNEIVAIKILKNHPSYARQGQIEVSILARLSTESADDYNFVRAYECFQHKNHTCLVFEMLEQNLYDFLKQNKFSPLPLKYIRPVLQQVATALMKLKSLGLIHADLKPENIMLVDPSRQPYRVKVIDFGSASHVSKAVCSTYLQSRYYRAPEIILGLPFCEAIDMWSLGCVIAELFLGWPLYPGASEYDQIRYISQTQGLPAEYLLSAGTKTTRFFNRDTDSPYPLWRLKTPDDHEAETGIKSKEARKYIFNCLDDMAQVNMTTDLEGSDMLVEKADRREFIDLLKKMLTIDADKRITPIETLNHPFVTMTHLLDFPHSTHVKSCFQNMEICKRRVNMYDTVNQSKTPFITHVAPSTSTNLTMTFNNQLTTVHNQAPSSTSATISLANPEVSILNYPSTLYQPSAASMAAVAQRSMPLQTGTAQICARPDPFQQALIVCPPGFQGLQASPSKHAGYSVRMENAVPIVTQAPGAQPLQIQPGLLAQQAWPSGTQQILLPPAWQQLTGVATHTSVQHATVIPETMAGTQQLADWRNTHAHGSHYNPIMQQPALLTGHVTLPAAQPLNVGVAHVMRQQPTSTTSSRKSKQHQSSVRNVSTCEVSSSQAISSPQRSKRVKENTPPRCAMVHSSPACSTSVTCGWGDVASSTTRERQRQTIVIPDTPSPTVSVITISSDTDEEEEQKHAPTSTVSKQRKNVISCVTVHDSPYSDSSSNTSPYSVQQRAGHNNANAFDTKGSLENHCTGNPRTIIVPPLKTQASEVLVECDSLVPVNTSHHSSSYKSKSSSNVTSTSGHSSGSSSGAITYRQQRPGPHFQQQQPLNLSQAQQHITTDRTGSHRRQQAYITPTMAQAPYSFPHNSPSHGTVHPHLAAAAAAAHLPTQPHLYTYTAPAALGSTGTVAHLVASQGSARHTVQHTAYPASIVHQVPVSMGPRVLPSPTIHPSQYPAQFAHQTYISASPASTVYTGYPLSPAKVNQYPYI

[9] = target: T8, ROCK2 (Homo sapiens, UniProt O75116); test: CEREP protein kinase assay; assay type: biochemical
T8 construct: purchased CEREP Panlabs (Eurofins)
T8 sequence (O75116 whole entry): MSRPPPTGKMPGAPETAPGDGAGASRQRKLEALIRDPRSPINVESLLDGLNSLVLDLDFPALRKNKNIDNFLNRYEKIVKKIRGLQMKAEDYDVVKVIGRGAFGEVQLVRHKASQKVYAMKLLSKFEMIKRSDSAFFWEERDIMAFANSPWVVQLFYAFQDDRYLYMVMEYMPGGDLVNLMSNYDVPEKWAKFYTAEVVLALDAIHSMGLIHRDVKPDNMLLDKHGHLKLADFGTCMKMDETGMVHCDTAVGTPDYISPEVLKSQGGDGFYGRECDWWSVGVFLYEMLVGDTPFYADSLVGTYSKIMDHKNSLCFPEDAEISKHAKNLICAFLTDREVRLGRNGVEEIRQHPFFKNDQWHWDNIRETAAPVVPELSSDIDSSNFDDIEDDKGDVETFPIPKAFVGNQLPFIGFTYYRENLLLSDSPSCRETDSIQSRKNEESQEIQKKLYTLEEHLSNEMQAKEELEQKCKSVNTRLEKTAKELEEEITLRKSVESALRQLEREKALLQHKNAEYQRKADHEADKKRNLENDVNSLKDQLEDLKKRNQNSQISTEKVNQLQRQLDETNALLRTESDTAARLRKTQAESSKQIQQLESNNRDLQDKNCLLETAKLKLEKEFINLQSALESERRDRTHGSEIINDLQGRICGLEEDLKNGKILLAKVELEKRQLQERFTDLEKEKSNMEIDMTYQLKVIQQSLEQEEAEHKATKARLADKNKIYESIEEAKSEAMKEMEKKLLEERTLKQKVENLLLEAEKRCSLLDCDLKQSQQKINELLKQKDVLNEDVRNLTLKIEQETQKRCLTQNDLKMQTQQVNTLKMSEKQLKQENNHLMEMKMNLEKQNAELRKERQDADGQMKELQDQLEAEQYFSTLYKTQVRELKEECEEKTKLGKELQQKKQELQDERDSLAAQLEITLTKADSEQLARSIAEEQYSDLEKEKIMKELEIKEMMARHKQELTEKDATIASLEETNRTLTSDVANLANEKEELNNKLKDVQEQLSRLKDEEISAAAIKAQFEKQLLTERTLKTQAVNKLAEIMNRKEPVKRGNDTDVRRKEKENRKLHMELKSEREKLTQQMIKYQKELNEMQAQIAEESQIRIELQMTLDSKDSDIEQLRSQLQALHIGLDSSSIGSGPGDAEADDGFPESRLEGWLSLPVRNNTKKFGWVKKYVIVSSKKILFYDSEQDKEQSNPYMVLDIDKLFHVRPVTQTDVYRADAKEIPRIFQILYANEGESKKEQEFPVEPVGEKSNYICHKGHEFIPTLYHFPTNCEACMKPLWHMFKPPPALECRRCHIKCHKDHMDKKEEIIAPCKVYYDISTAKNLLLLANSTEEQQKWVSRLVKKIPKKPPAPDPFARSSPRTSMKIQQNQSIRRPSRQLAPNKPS

[10] = target: T9, PDGFRb (Homo sapiens, UniProt P09619); test: CEREP protein kinase assay; assay type: biochemical
T9 construct: purchased CEREP Panlabs (Eurofins)

## O=c1[nH]ccc2cc(F)c(NS(=O)(=O)c3ccc(N4CC[C@@H](O)C4)s3)cc12 [LSN3213128, N-(6-Fluoro-1-oxo-1,2-dihydroisoquinolin-7-yl)-5-[(3R)-3-hydroxypyrrolidin-1-yl]thiophene-2-sulfonamide]
[1]; @ 0.2 uM
  inhibition at 0.2 µM: -9.2%
[1]; @ 2 uM
  inhibition at 2 µM: 2.93%
[1]; @ 20 uM
  inhibition at 20 µM: 22.2%
[2]; 100 mg/kg QDx12 dose group
  tumor dUMP: 0.72 ± 0.41 µM
[2]; after 12 days of dosing, 100 mg/kg
  tumor ZMP levels: dramatically elevated
[3]; @ 0.2 uM
  inhibition at 0.2 µM: -4.11%
[3]; @ 2 uM
  inhibition at 2 µM: 1.86%
[3]; @ 20 uM
  inhibition at 20 µM: 4.28%
[4]; @ 0.2 uM
  inhibition at 0.2 µM: -3.72%
[4]; @ 2 uM
  inhibition at 2 µM: -1.04%
[4]; @ 20 uM
  inhibition at 20 µM: -3.76%
[5]; @ 0.2 uM
  inhibition at 0.2 µM: -2.24%
[5]; @ 2 uM
  inhibition at 2 µM: -2.52%
[5]; @ 20 uM
  inhibition at 20 µM: 32.3%
[6]; @ 0.2 uM
  inhibition at 0.2 µM: -9.3%
[6]; @ 2 uM
  inhibition at 2 µM: 0.634%
[6]; @ 20 uM
  inhibition at 20 µM: 10.3%
[7]; @ 0.2 uM
  inhibition at 0.2 µM: -10.2%
[7]; @ 2 uM
  inhibition at 2 µM: 11.7%
[7]; @ 20 uM
  inhibition at 20 µM: 57.1%
[8]; @ 0.2 uM
  inhibition at 0.2 µM: -9.39%
[8]; @ 2 uM
  inhibition at 2 µM: 6.25%
[8]; @ 20 uM
  inhibition at 20 µM: 14.1%
[9]; @ 0.2 uM
  inhibition at 0.2 µM: -3.09%
[9]; @ 2 uM
  inhibition at 2 µM: 4.72%
[9]; @ 20 uM
  inhibition at 20 µM: 5.81%
[10]; @ 0.2 uM
  inhibition at 0.2 µM: -85.9%
[10]; @ 2 uM
  inhibition at 2 µM: -63.2%
[10]; @ 20 uM
  inhibition at 20 µM: -71%
